According to US11597724B2, “Herbicidally active 3-phenylisoxazoline-5-carboxamides of tetrahydro and dihydrofuran carboxylic acids and esters” (Bayer Aktiengesellschaft, priority 2017, dated 2023):

Legend:
Format in all cases: in vivo
Polygonum convolvulus = test: Post-emergence herbicidal activity against POLCO; settings: dosage 320 g/ha, rated about 3 weeks after treatment; for pest or weed control at 320 g/ha: Fallopia convolvulus, 504 h
Experimental: (§1) POLCO: Polygonum convolvulus SETVI: Setaria viridis 2. Post-Emergence Herbicidal Action and Crop Plant Compatibility Seeds of monocotyledonous and dicotyledonous weeds and crop plants are placed in sandy loam in plastic or wood-fiber pots, covered with soil and cultivated in a greenhouse under controlled growth conditions. 2 to 3 weeks after sowing, the test plants are treated at the one-leaf stage. The compounds of the invention, formulated in the form of wettable powders (WP) or as emulsion concentrates (EC), are then sprayed onto the green parts of the plants as aqueous suspension or emulsion with addition of 0.5% additive at a water application rate of 600 l/ha (converted). After the test plants had been kept in the greenhouse under optimum growth conditions for about 3 weeks, the activity of the preparations is rated visually in comparison to untreated controls. For example, 100% activity=the plants have died, 0% activity=like control plants.

Setaria viridis = test: Post-emergence herbicidal activity against SETVI; settings: dosage 320 g/ha, rated about 3 weeks after treatment; for pest or weed control at 320 g/ha: Setaria viridis, 504 h
Experimental: as §1

Avena fatua = test: Post-emergence herbicidal activity against AVEFA; settings: dosage 320 g/ha, rated about 3 weeks after treatment; for pest or weed control at 320 g/ha: Avena fatua, 504 h
Experimental: as §1, with “AMARE: Amaranthus retroflexus AVEFA: Avena fatua” for “POLCO: Polygonum convolvulus SETVI: Setaria viridis”

Pharbitis purpurea = test: Post-emergence herbicidal activity against PHBPU; settings: dosage 320 g/ha, rated about 3 weeks after treatment; for pest or weed control at 320 g/ha: Ipomoea purpurea, 504 h
Experimental: as §1, with “LOLRI: Lolium rigidum PHBPU: Pharbitis purpurea” for “POLCO: Polygonum convolvulus SETVI: Setaria viridis”

Veronica persica = test: Post-emergence herbicidal activity against VERPE; settings: dosage 320 g/ha; for pest or weed control at 320 g/ha: Veronica persica, 504 h
Experimental: as §1, with “STEME: Stellaria media VERPE: Veronica persica” for “POLCO: Polygonum convolvulus SETVI: Setaria viridis”

Viola tricolor = test: Post-emergence herbicidal activity against VIOTR; settings: dosage 320 g/ha, rated about 3 weeks after treatment
Experimental: as §1, with “VIOTR: Viola tricolor” for “POLCO: Polygonum convolvulus SETVI: Setaria viridis”

Abutilon theophrasti = test: Post-emergence herbicidal activity against ABUTH; settings: dosage 320 g/ha, rated about 3 weeks after treatment
Experimental: as §1, with “ABUTH: Abutilon theophrasti ALOMY: Alopecurus myosuroides” for “POLCO: Polygonum convolvulus SETVI: Setaria viridis”

Lolium rigidum = test: Post-emergence herbicidal activity against LOLRI; settings: dosage 320 g/ha, rated about 3 weeks after treatment
Experimental: as §1, with “LOLRI: Lolium rigidum PHBPU: Pharbitis purpurea” for “POLCO: Polygonum convolvulus SETVI: Setaria viridis”

Hordeum murinum = test: Post-emergence herbicidal activity against HORMU; settings: dosage 320 g/ha
Experimental: as §1, with “ECHCG: Echinochloa crus-galli HORMU: Hordeum murinum” for “POLCO: Polygonum convolvulus SETVI: Setaria viridis”

Stellaria media = test: Post-emergence herbicidal activity against STEME; settings: dosage 320 g/ha, rated about 3 weeks after treatment; for pest or weed control at 320 g/ha: Stellaria media, 504 h
Experimental: as §1, with “STEME: Stellaria media VERPE: Veronica persica” for “POLCO: Polygonum convolvulus SETVI: Setaria viridis”

Alopecurus myosuroides = test: Post-emergence herbicidal activity against ALOMY; settings: dosage 320 g/ha, rated about 3 weeks after treatment; for pest or weed control at 320 g/ha: Alopecurus myosuroides, 504 h
Experimental: as §1, with “ABUTH: Abutilon theophrasti ALOMY: Alopecurus myosuroides” for “POLCO: Polygonum convolvulus SETVI: Setaria viridis”

Echinochloa crus-galli = test: Post-emergence herbicidal activity against ECHCG; settings: dosage 320 g/ha, rated about 3 weeks after treatment; for pest or weed control at 320 g/ha: Echinochloa crus-galli, 504 h
Experimental: as §1, with “ECHCG: Echinochloa crus-galli HORMU: Hordeum murinum” for “POLCO: Polygonum convolvulus SETVI: Setaria viridis”

Amaranthus retroflexus = test: Post-emergence herbicidal activity against AMARE; settings: dosage 320 g/ha, rated about 3 weeks after treatment; for pest or weed control at 320 g/ha: Amaranthus retroflexus, 504 h
Experimental: as §1, with “AMARE: Amaranthus retroflexus AVEFA: Avena fatua” for “POLCO: Polygonum convolvulus SETVI: Setaria viridis”

[1] = Post-emergence treatment, summary over harmful plants; settings: 504 h, application rate of 0.32 kg of active substance or less per hectare, read-out: herbicidal action, post-emergence treatment (very good herbicidal activity)
Experimental: 2. Post-Emergence Herbicidal Action and Crop Plant Compatibility
as §1, with “Seeds” for “POLCO: Polygonum convolvulus SETVI: Setaria viridis 2. Post-Emergence Herbicidal Action and Crop Plant Compatibility Seeds”
As shown by the results, compounds according to the invention such as, for example, the compounds No. I-35 and other compounds from the tables (for example I-28, I-38, I-01, I-19, I-36, I-29, I-32, I-11, I-12, I-37, I-06, I-09, I-33, I-34, I-13, I-04, I-26, I-21, I-30, I-05, I-03, I-20, I-27, I-14, I-10, I-23, I-07, I-25, I-02, I-08, I-24, I-41, I-42, I-43, I-44, I-46, I-49, I-54, I-55, I-56) have, when used for post-emergence treatment, very good herbicidal activity (80% to 100% herbicidal action) against harmful plants such as Abutilon theophrasti, Alopecurus myosuroides, Amaranthus retroflexus, Avena fatua, Echinochloa crus-galli, Hordeum murinum, Lolium rigidum, Pharbitis purpurea, Polygonum convolvulus, Setaria viridis, Stellaria media, Veronica persica and Viola tricolor at an application rate of 0.32 kg of active substance or less per hectare.

Row | Compound | pest or weed control at 320 g/ha (Polygonum convolvulus) [%] | pest or weed control at 320 g/ha (Setaria viridis) [%] | pest or weed control at 320 g/ha (Avena fatua) [%] | pest or weed control at 320 g/ha (Pharbitis purpurea) [%] | pest or weed control at 320 g/ha (Veronica persica) [%] | pest or weed control at 320 g/ha (Alopecurus myosuroides) [%] | pest or weed control at 320 g/ha (Echinochloa crus-galli) [%] | other results
1 | C=C[C@@]1(C(=O)N[C@H]2CO[C@@H](C(=O)OC)C2)CC(c2cc(F)cc(F)c2)=NO1 (mixture of isomers) [I-22, methyl cis-4-[[(5R)-3-(3,5-difluorophenyl)-5-vinyl-4H-isoxazole-5-carbonyl]amino]tetrahydrofuran-2-carboxylate] | 90 |  |  |  |  |  |  | 
2 | C=CC1(C(=O)NC2COC(C(=O)OCc3cccc(F)c3)C2)CC(c2cc(F)cc(F)c2)=NO1 (mixture of isomers) [I-52] |  |  |  |  |  |  |  | Post-emergence herbicidal activity against SETVI in % (Setaria viridis): 90%; Post-emergence herbicidal activity against AVEFA in % (Avena fatua): 90%; Post-emergence herbicidal activity against PHBPU in % (Pharbitis purpurea): 90%; Post-emergence herbicidal activity against VERPE in % (Veronica persica): 90%; Post-emergence herbicidal activity against VIOTR in % (Viola tricolor): 90%; Post-emergence herbicidal activity against POLCO in % (Polygonum convolvulus): 90%; Post-emergence herbicidal activity against ABUTH in % (Abutilon theophrasti): 90%; Post-emergence herbicidal activity against LOLRI in % (Lolium rigidum): 90%; Post-emergence herbicidal activity against HORMU in % (Hordeum murinum): 90%; Post-emergence herbicidal activity against STEME in % (Stellaria media): 90%; Post-emergence herbicidal activity against ALOMY in % (Alopecurus myosuroides): 90%; Post-emergence herbicidal activity against ECHCG in % (Echinochloa crus-galli): 90%; Post-emergence herbicidal activity against AMARE in % (Amaranthus retroflexus): 90%
3 | COC(=O)[C@H]1C[C@@H](NC(=O)C2(C)CC(c3cccc(F)c3)=NO2)CO1 (relative stereo) [I-13, methyl cis-4-[[3-(3-fluorophenyl)-5-methyl-4H-isoxazole-5-carbonyl]amino]tetrahydrofuran-2-carboxylate] | 80 | 80 | 90 | 90 | 80 | 90 | 80 | pest or weed control at 320 g/ha [1]: 80 to 100%
4 | CC1(C(=O)N[C@H]2CO[C@@H](C(=O)O)C2)CC(c2cccc(F)c2)=NO1 (relative stereo) [I-20, cis-4-[[3-(3-fluorophenyl)-5-methyl-4H-isoxazole-5-carbonyl]amino]tetrahydrofuran-2-carboxylic acid] | 80 | 80 | 90 | 80 | 90 | 90 | 80 | pest or weed control at 320 g/ha (Stellaria media): 80%; pest or weed control at 320 g/ha [1]: 80 to 100%; pest or weed control at 320 g/ha (Amaranthus retroflexus): 80%
5 | COC(=O)C1(NC(=O)C2(C)CC(c3cc(F)cc(F)c3)=NO2)CCOC1 (stereo not shown) [I-17, methyl 3-[[3-(3,5-difluorophenyl)-5-methyl-4H-isoxazole-5-carbonyl]amino]tetrahydrofuran-3-carboxylate] | 90 |  | 80 |  |  |  |  | 
6 | CCOC(=O)C1(NC(=O)C2(C)CC(c3cc(F)cc(F)c3)=NO2)CCOC1 (stereo not shown) [I-18, ethyl 3-[[3-(3,5-difluorophenyl)-5-methyl-4H-isoxazole-5-carbonyl]amino]tetrahydrofuran-3-carboxylate] |  |  | 100 |  | 80 | 80 |  | 
7 | COC(=O)[C@]1(OC)C[C@H](NC(=O)C2(C)CC(c3cccc(F)c3)=NO2)CO1 (stereo partly drawn) [I-40, methyl (2S,4S)-4-[[3-(3-fluorophenyl)-5-methyl-4H-isoxazole-5-carbonyl]amino]-2-methoxytetrahydrofuran-2-carboxylate] | 80 | 80 |  | 90 | 80 | 90 | 80 | pest or weed control at 320 g/ha (Hordeum murinum; Hordeum murinum, 504 h): 90%; pest or weed control at 320 g/ha (Stellaria media): 80%; pest or weed control at 320 g/ha (Amaranthus retroflexus): 80%
